The source made the active and inactive calls. The rule behind the calls is not given here.
What was measured:
[1] = test system: KB; assay: Evaluated in vitro for cytotoxicity against KB cell culture system; assay type: functional; settings: Homo sapiens, read-out: ED50 (the source's name)
[2] = test system: P388; assay: Evaluated for anticancer activity against P388 lymphocytic leukemia system at a dose of 200 mg/Kg; Inactive; assay type: functional; settings: Mus musculus
[3] = test system: P388; assay: Evaluated for percentage test/control (%T/C) in survival tumor system against P388 lymphocytic leukemia; assay type: functional, Mus musculus
[4] = test system: B16; assay: Evaluated for percentage test/control (%T/C) in survival tumor system against B16 melanocarcinoma at dose 20 mg/Kg; assay type: functional, Mus musculus
[5] = test system: L1210; assay: Evaluated for percentage test/control (%T/C) in survival tumor system against L1210 lymphoid leukemia; assay type: functional, Mus musculus

Compound | EC50 [1] [ng/mL] | Anticancer activity [2] | T/C [3] [%] | T/C [4] [%] | T/C [5] [%]
COc1cc2cc(-c3ccc4c(c3)OCO4)[n+](C)cc2cc1OC.[Cl-] | 5 | inactive |  |  | 
COc1cc2c(ccc3c4cc(OC)c(OC)cc4c[n+](C)c23)cc1O.[Cl-] [FAGARONINE] |  |  | 265 |  | 
COc1cc2c[n+](C)c3c4cc5c(cc4ccc3c2cc1OC)OCO5.[Cl-] [NITIDINE CHLORIDE] |  |  | 209 | 141 | 136
